Laboratory results: PubChem BioAssay (NCI)
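Each compound was tested at five concentrations against cells in 96-well plates for 48 hours. GI50 is the concentration that inhibits growth by half. At the TGI there is no net growth.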

Experiments:
Test in all cases: NCI tumour cell line growth inhibition, 48 h
[1] = tested on: DU-145 prostate
[2] = tested on: CCRF-CEM leukemia
[3] = tested on: HL-60(TB) leukemia
[4] = tested on: RXF 393 renal
[5] = tested on: SF-539 CNS
[6] = tested on: T-47D breast
[7] = tested on: K-562 leukemia
[8] = tested on: SW-620 colon
[9] = tested on: U251 CNS
[10] = tested on: OVCAR-5 ovarian
[11] = tested on: LOX IMVI melanoma
[12] = tested on: CAKI-1 renal
[13] = tested on: HCT-116 colon
[14] = tested on: NCI-H23 lung
[15] = tested on: SR leukemia
[16] = tested on: MDA-MB-435
[17] = tested on: ACHN renal
[18] = tested on: RPMI-8226 leukemia
[19] = tested on: A549 NSCLC
[20] = tested on: KM12 colon
[21] = tested on: SK-MEL-5 melanoma
[22] = tested on: SNB-19 CNS
[23] = tested on: COLO 205 colon
[24] = tested on: UACC-62 melanoma
[25] = tested on: NCI/ADR-RES ovarian
[26] = tested on: SNB-75 CNS
[27] = tested on: EKVX NSCLC
[28] = tested on: MOLT-4 leukemia
[29] = tested on: A498 renal
[30] = tested on: SF-295 CNS
[31] = tested on: NCI-H226 lung
[32] = tested on: HOP-92 NSCLC
[33] = tested on: HCT-15 colon
[34] = tested on: NCI-H522 lung
[35] = tested on: SN12C renal
[36] = tested on: NCI-H460 lung
[37] = tested on: M14 melanoma
[38] = tested on: SK-MEL-28 melanoma
[39] = tested on: TK-10 renal
[40] = tested on: BT-549 breast
[41] = tested on: HT29 colon
[42] = tested on: PC-3 prostate
[43] = tested on: MCF7 breast
[44] = tested on: OVCAR-8 ovarian
[45] = tested on: HCC-2998 colon
[46] = tested on: MDA-MB-231 breast
[47] = tested on: UO-31 renal
[48] = tested on: OVCAR-3 ovarian
[49] = tested on: SF-268 CNS
[50] = tested on: HS 578T breast
[51] = tested on: HOP-62 NSCLC
[52] = tested on: OVCAR-4 ovarian
[53] = tested on: SK-MEL-2 melanoma
[54] = tested on: 786-0 renal
[55] = tested on: SK-OV-3 ovarian
[56] = tested on: MALME-3M melanoma

Compound: Cc1ccc(N(CC(=O)Nc2ccc(S(=O)(=O)NC3CCN(C)CC3)cc2)S(=O)(=O)c2ccc(Cl)cc2)cc1
- GI50 [1]: 3.27 µM
- TGI [1]: 11.2 µM
- GI50 [2]: 2.94 µM
- TGI [2]: 11.1 µM
- GI50 [3]: 2.21 µM
- TGI [3]: 4.93 µM
- GI50 [4]: 1.65 µM
- TGI [4]: 3.84 µM
- GI50 [5]: 1.85 µM
- TGI [5]: 3.52 µM
- GI50 [6]: 2.03 µM
- TGI [6]: 4.47 µM
- GI50 [7]: 2.23 µM
- TGI [7]: 5 µM
- GI50 [8]: 1.84 µM
- TGI [8]: 3.61 µM
- GI50 [9]: 2.35 µM
- TGI [9]: 5.83 µM
- GI50 [10]: 4.04 µM
- TGI [10]: 17.1 µM
- GI50 [11]: 1.89 µM
- TGI [11]: 3.76 µM
- GI50 [12]: 14.7 µM
- TGI [12]: 28.4 µM
- GI50 [13]: 1.69 µM
- TGI [13]: 3.2 µM
- GI50 [14]: 10.1 µM
- TGI [14]: 24.5 µM
- GI50 [15]: 2.33 µM
- TGI [15]: 7.46 µM
- GI50 [16]: 1.86 µM
- TGI [16]: 3.57 µM
- GI50 [17]: 12 µM
- TGI [17]: 27.6 µM
- GI50 [18]: 2.71 µM
- TGI [18]: 7.89 µM
- GI50 [19]: 5 µM
- TGI [19]: 16.3 µM
- GI50 [20]: 2.85 µM
- TGI [20]: 8.25 µM
- GI50 [21]: 1.83 µM
- TGI [21]: 3.29 µM
- GI50 [22]: 4.27 µM
- TGI [22]: 21.5 µM
- GI50 [23]: 1.89 µM
- TGI [23]: 3.89 µM
- GI50 [24]: 1.74 µM
- TGI [24]: 3.59 µM
- GI50 [25]: 16.8 µM
- TGI [25]: 35.5 µM
- GI50 [26]: 2.95 µM
- TGI [26]: 15.7 µM
- GI50 [27]: 5.09 µM
- TGI [27]: 19.8 µM
- GI50 [28]: 2.97 µM
- TGI [28]: 10.1 µM
- GI50 [29]: 13.4 µM
- TGI [29]: 28.8 µM
- GI50 [30]: 2.12 µM
- TGI [30]: 5.49 µM
- GI50 [31]: 5.37 µM
- TGI [31]: 23.4 µM
- GI50 [32]: 1.86 µM
- TGI [32]: 8.64 µM
- GI50 [33]: 11.9 µM
- TGI [33]: 27.5 µM
- GI50 [34]: 2.24 µM
- TGI [34]: 4.62 µM
- GI50 [35]: 3.05 µM
- TGI [35]: 13.1 µM
- GI50 [36]: 2.02 µM
- TGI [36]: 4 µM
- GI50 [37]: 1.79 µM
- TGI [37]: 3.42 µM
- GI50 [38]: 1.95 µM
- TGI [38]: 4.18 µM
- GI50 [39]: 13.7 µM
- TGI [39]: 27 µM
- GI50 [40]: 12.6 µM
- TGI [40]: 27.8 µM
- GI50 [41]: 2.88 µM
- TGI [41]: 7.5 µM
- GI50 [42]: 2.86 µM
- TGI [42]: 10.7 µM
- GI50 [43]: 3.02 µM
- TGI [43]: 13.1 µM
- GI50 [44]: 3.61 µM
- TGI [44]: 12.1 µM
- GI50 [45]: 2.1 µM
- TGI [45]: 5.25 µM
- GI50 [46]: 1.87 µM
- TGI [46]: 4.68 µM
- GI50 [47]: 14.7 µM
- TGI [47]: 30.3 µM
- GI50 [48]: 2.99 µM
- TGI [48]: 8.77 µM
- GI50 [49]: 2.67 µM
- TGI [49]: 8.26 µM
- GI50 [50]: 2.27 µM
- TGI [50]: 6.74 µM
- GI50 [51]: 3.96 µM
- TGI [51]: 14.2 µM
- GI50 [52]: 5.13 µM
- TGI [52]: 19.7 µM
- GI50 [53]: 2.15 µM
- TGI [53]: 4.86 µM
- GI50 [54]: 2.08 µM
- TGI [54]: 5.23 µM
- GI50 [55]: 5.45 µM
- TGI [55]: 17.8 µM
- GI50 [56]: 1.72 µM
- TGI [56]: 3.65 µM
